US5112872A, “Antispasmodic agent” (Taiko Pharmaceutical Co., Ltd., priority 1989, dated 1992)
Like-named read-outs stand apart in the source and are kept apart here.

What was measured:
strips of the ileum = experiment: 100% inhibition of peristaltic motility of ileum strips, Pharmacological Test 1(b); parameters: species or system guinea pig (female Hartley); conditions: for IC100: Cavia porcellus, read-out: IC100 (dose causing 100% inhibition of the motility of the strip)
Description: (b) Experiments on the inhibition of peristaltic motility of intestinal strips were carried out in the same manner as Experiment (a) except that guaiacol, creosol, cresol, phenol and xylenol, all of which are components of creosote, were respectively used in lieu of creosote.

in vivo = conditions: rat, po

## COc1cc(C)ccc1O [Creosol, creosol]
Strips of the ileum
  antispasmodic activity (inhibition of intestinal motility), in words: antispasmodic activity comparable to that of creosote
Strips of the ileum; strips of the ileum
  IC100: 100 µg/mL

## COc1ccccc1O [Guaiacol, guaiacol]
Strips of the ileum
  antispasmodic activity (inhibition of intestinal motility), in words: antispasmodic activity comparable to that of creosote
Strips of the ileum; strips of the ileum
  IC100: 100 µg/mL
In vivo
  LD50: 725 mg/kg

## Oc1ccccc1 [Phenol, phenol]
Strips of the ileum
  antispasmodic activity (inhibition of intestinal motility), in words: antispasmodic activity comparable to that of creosote
  IC100: 100 µg/mL
In vivo
  LD50: 530 mg/kg

## Cc1cccc(O)c1 [m-Cresol]
In vivo
  LD50: 2020 mg/kg

## Cc1ccccc1O [o-Cresol]
In vivo
  LD50: 1350 mg/kg

## Cc1ccc(O)cc1 [p-Cresol]
In vivo
  LD50: 1800 mg/kg

## cresol
Strips of the ileum
  antispasmodic activity (inhibition of intestinal motility), in words: antispasmodic activity comparable to that of creosote
Strips of the ileum; strips of the ileum
  IC100 (dose causing 100% inhibition of the motility of the strip): 0.0001 g/mL

## xylenol
Strips of the ileum
  antispasmodic activity (inhibition of intestinal motility), in words: antispasmodic activity comparable to that of creosote
Strips of the ileum; strips of the ileum
  IC100 (dose causing 100% inhibition of the motility of the strip): 0.0001 g/mL
